Measurements: ChEMBL document CHEMBL1201862, “PubChem BioAssay data set” (2004)
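How tested: cells in 96-well plates exposed to compound for 48 hours at five concentrations. GI50 = concentration required for 50% inhibition of growth.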 Active and inactive are the calls of the source. Cut-off read from the data, not from the text of the source: active = GI50 up to about 1.1 µM and inactive = higher.

Legend:
Test in all cases: NCI anticancer screen, dose series, 48 h
786-0 = test system: 786-0
HCT-15 = test system: HCT-15
IGROV-1 = test system: IGROV-1
K562 = test system: K562
LOX IMVI = test system: LOX IMVI
M14 = test system: M14
NCI-H522 = test system: NCI-H522
RXF 393 = test system: RXF 393
SF-268 = test system: SF-268
SF-295 = test system: SF-295
SW-620 = test system: SW-620
TK-10 = test system: TK-10
EKVX = test system: EKVX
NCI-H226 = test system: NCI-H226
UACC-257 = test system: UACC-257

| SMILES | GI50 (786-0) | GI50 (HCT-15) [µM] | GI50 (IGROV-1) | GI50 (K562) | GI50 (LOX IMVI) | GI50 (M14) | GI50 (NCI-H522) | GI50 (RXF 393) | GI50 (SF-268) | GI50 (SF-295) | GI50 (SW-620) | GI50 (TK-10) | GI50 (EKVX) | GI50 (NCI-H226) | GI50 (UACC-257) |
| --- | --- | --- | --- | --- | --- | --- | --- | --- | --- | --- | --- | --- | --- | --- | --- |
| CC(C1=CC=C2[C@@H]3CCC4CC(N(C)C)CC[C@]4(C)C3CC[C@]12C)N(C)C=O (some centres undefined) | > 100 µM (inactive) | > 100 | > 100 µM (inactive) | 36.1 µM (inactive) | 25.7 µM (inactive) | > 100 µM (inactive) | > 100 µM (inactive) | > 100 µM (inactive) | > 100 µM (inactive) | > 100 µM (inactive) | > 100 µM (inactive) | > 100 µM (inactive) | – | – | – |
| CC1=C(C(=O)Nc2ccc([N+](=O)[O-])cc2)C(c2ccccc2F)C(C(=O)Nc2ccc([N+](=O)[O-])cc2)=C(C)N1 | 20.8 µM (inactive) | – | 12.8 µM (inactive) | 6.61 µM (inactive) | 11 µM (inactive) | 15.1 µM (inactive) | 8.2 µM (inactive) | 6.75 µM (inactive) | 21.2 µM (inactive) | 20.3 µM (inactive) | 21.8 µM (inactive) | 23.7 µM (inactive) | 8.81 µM (inactive) | 14 µM (inactive) | 15 µM (inactive) |
| CCC1CN2CCc3cc(OC)c(OC)cc3C2CC1CC1c2cc(OC)c(OC)cc2CCN1C(=O)CNC(=O)OC(C)(C)C (centres undefined) | 4.08 µM (inactive) | 12.3 | 19.5 µM (inactive) | 3.34 µM (inactive) | 4.48 µM (inactive) | > 10 µM (inactive) | – | 17.5 µM (inactive) | 24.4 µM (inactive) | 3.9 µM (inactive) | 4.07 µM (inactive) | 28.6 µM (inactive) | 5.05 µM (inactive) | 18.3 µM (inactive) | 21.4 µM (inactive) |
| O=S(=O)(C/C(=N\O)c1ccccc1)c1ccccc1 | > 100 µM (inactive) | > 100 | > 100 µM (inactive) | > 100 µM (inactive) | > 100 µM (inactive) | > 100 µM (inactive) | 57.9 µM (inactive) | > 100 µM (inactive) | > 100 µM (inactive) | > 100 µM (inactive) | > 100 µM (inactive) | > 100 µM (inactive) | > 100 µM (inactive) | > 100 µM (inactive) | > 100 µM (inactive) |
| C#Cc1c(C)c(/C=C/C(C)=C\C(=O)OC)n(C)c1C | 55.1 µM (inactive) | 92.9 | > 100 µM (inactive) | 8.97 µM (inactive) | > 100 µM (inactive) | > 100 µM (inactive) | 50.7 µM (inactive) | – | 68.5 µM (inactive) | > 100 µM (inactive) | > 100 µM (inactive) | > 100 µM (inactive) | > 100 µM (inactive) | > 100 µM (inactive) | > 100 µM (inactive) |
| CC(=O)C1C(=O)C(=O)N(c2ccccc2C(C)C)C1=O (centres undefined) | > 100 µM (inactive) | > 100 | > 100 µM (inactive) | > 100 µM (inactive) | > 100 µM (inactive) | > 100 µM (inactive) | > 100 µM (inactive) | > 100 µM (inactive) | > 100 µM (inactive) | > 100 µM (inactive) | > 100 µM (inactive) | > 100 µM (inactive) | > 100 µM (inactive) | > 100 µM (inactive) | > 100 µM (inactive) |
| O=C1OC(=O)c2c1c(-c1ccccc1)nc1ccccc21 | > 100 µM (inactive) | > 100 | > 100 µM (inactive) | > 100 µM (inactive) | > 100 µM (inactive) | > 100 µM (inactive) | > 100 µM (inactive) | > 100 µM (inactive) | > 100 µM (inactive) | > 100 µM (inactive) | > 100 µM (inactive) | > 100 µM (inactive) | > 100 µM (inactive) | > 100 µM (inactive) | > 100 µM (inactive) |
| COC(=O)/C(C#N)=C1\CCC(OC)N1 (centres undefined) | > 100 µM (inactive) | > 100 | > 100 µM (inactive) | > 100 µM (inactive) | > 100 µM (inactive) | > 100 µM (inactive) | > 100 µM (inactive) | 47.2 µM (inactive) | > 100 µM (inactive) | > 100 µM (inactive) | > 100 µM (inactive) | > 100 µM (inactive) | > 100 µM (inactive) | > 100 µM (inactive) | > 100 µM (inactive) |
